Reference: US20140378395A1, “Peptides for the Treatment of Hearing” (13Therapeutics, Inc., priority 2011, published 2014)

Assays:
[1] = test system: TNF-α secretion from RAW264.7 cells; assay: Inhibition of CpG-ODN-induced TNF-α secretion from RAW264.7 cells (ELISA); format: cell-based, murine; conditions: for activity compared with P13 (inhibition of TNF-α after stimulation of RAW264.7 cells with CpG): SAR, versus P13; for Percent Inhibition of TNF-α secretion, CpG Stimulation / Inhibition of TNF-α secretion (percent inhibition) / Percent Inhibition of TNF-α secretion: RAW264.7, 4 hours; for Percent Inhibition of TNF-α secretion, CpG Stimulation: 1.25 ug/ml CpG-ODN; for Inhibition of TNF-α secretion (percent inhibition) / Percent Inhibition of TNF-α secretion: 1 μg/ml CpG-ODN
Procedure: RAW264.7 cells were plated at 1.5×10^5 cells/well-3×10^5 cells/well in 48-well plates. After 24 hours, the cells were incubated with peptides at various concentrations at room temperature in triplicate either before, simultaneous with, or after activation with various PAMPs for 18 hours. Cell-free supernatants were analyzed for cytokines by ELISA, in quadruplicate. RAW264.7 cells were stimulated with either CpG-ODN (1 μg/ml or 1.25 μg/ml), LPS (about 1 ng/ml), Poly (I:C) (about 10 μg/ml), flagellin (about 5 ng/ml), or zymosan (about 10 μg/ml). Dose response curves were done with each PAMP to determine optimal stimulation concentration. For CpG-ODN stimulation, cells were incubated for 4 hours at 37° C., supernatants collected, and TNF-α measured by ELISA. Any cytokine involved in inflammatory disease mediated toll receptor signaling can be measured using similar assays.
The effect of several peptides on TNF-α secretion from RAW264.7 cells in response to stimulation by CpG-ODN was studied. Each peptide was initially tested at 3 concentrations, 37 μM, 22.2 μM, and 11.1 μM. […] The peptides were then tested at 11.1 μM, 7.4 μM, and 3.7 μM (Table 3). […] Cell viability was examined for each peptide at the concentrations tested for TNF-α inhibition.
Inhibition of TNF-α secretion by various T-peptides was examined. RAW264.7 cells were plated at 3×10^5 cells/well in 48-well plates. After 24 h the cells were incubated with peptide at various concentrations at room temperature in triplicate for 15 minutes and then stimulated with 1.25 ug/ml CpG-ODN or 1 ng/ml LPS. Cells were then incubated for 4 hours at 37° C., supernatants collected, and TNF-α measured by ELISA. Percent inhibition was calculated by comparing TNF-α secretion from cells incubated with peptide to control cells with no peptide treatment. The inhibitive effects of peptides T3 (SEQ ID NO: 319), T11 (SEQ ID NO: 327), T21 (SEQ ID NO: 337), T36 (SEQ ID NO: 352), T37 (SEQ ID NO: 353), T51 (SEQ ID NO: 367), and T52 (SEQ ID NO: 368) were compared to inhibition by an analogue of P13 (SEQ ID NO: 369) having a sequence of nine arginine residues at the C-terminus (P13-R^9 (SEQ ID NO: 378)). (Table 4).

[2] = test system: TNF-α secretion from RAW264.7 cells; assay: as above; format: cell-based, murine; conditions: peptide 3.1 μM (Table 3), 1 μg/ml CpG-ODN, 4 hours

| Sequence | activity compared with P13 (inhibition of TNF-α after stimulation of RAW264.7 cells with CpG) [1] | Percent Inhibition of TNF-α secretion, CpG Stimulation ([1]; peptide 7.1 μM) | Percent Inhibition of TNF-α secretion, CpG Stimulation ([1]; peptide 11.1 μM) | Percent Inhibition of TNF-α secretion, CpG Stimulation ([1]; peptide 22 μM) | Inhibition of TNF-α secretion (percent inhibition) [2] | Inhibition of TNF-α secretion (percent inhibition) ([1]; peptide 7 μM (Table 3)) | Inhibition of TNF-α secretion (percent inhibition) ([1]; peptide 11 μM (Table 3)) | Percent Inhibition of TNF-α secretion ([1]; peptide 11.1 μM) | Percent Inhibition of TNF-α secretion ([1]; peptide 22.2 μM) | Percent Inhibition of TNF-α secretion ([1]; peptide 37 μM) |
| --- | --- | --- | --- | --- | --- | --- | --- | --- | --- | --- |
| AIIKVYVYACIRRRRRRRRR [T52-R^9] | superior activity | 97.8% | 99.2% | 100% |  |  |  |  |  |  |
| AIVKLTVYACIRRRRRRRRR [T51-R^9] | superior activity | 94% | 98% | 99.7% |  |  |  |  |  |  |
| DIIKLTVYDCIRRRRRRRRR [T36-R^9] | superior activity | 50% | 70% | 82% |  |  |  |  |  |  |
| DIVKLYVYDCIRRRRRRRRR [T21-R^9] | superior activity | 69% | 90% | 98% |  |  |  |  |  |  |
| DIVKVTVYDCIRRRRRRRRR [T37-R^9] | superior activity | 46% | 87% | 93% |  |  |  |  |  |  |
| EMFTILEEYFMYRGLLGLRIKRRRRRRRRR (C-terminal nona-arginine (R9)) [74(S10)-R^9] |  |  |  |  | 35% | 80% | 92% | 91% | 100% | 100% |
| EMFTILEEYFMYRGLLGLRIKYGRLFNEIRRRRRRRRR (C-terminal nona-arginine (R9)) [42(S1)-R^9] |  |  |  |  | 37% | 67% | 83% | 85% | 96% | 97% |
| EMFTILEEYFMYRGLLGLRIKYGRLFNRRRRRRRRR (C-terminal nona-arginine (R9)) [68(S4)-R^9] |  |  |  |  | 69% | 83% | 95% | 95% | 100% | 100% |
| EMFTILEEYFMYRGLLGLRIKYGRLFRRRRRRRRR (C-terminal nona-arginine (R9)) [69(S5)-R^9] |  |  |  |  | 66% | 94% | 93% | 93% | 100% | 100% |
| EMFTILEEYFMYRGLLGLRIKYGRLRRRRRRRRR (C-terminal nona-arginine (R9)) [70(S6)-R^9] |  |  |  |  | 63% | 87% | 94% | 93% | 100% | 100% |
| EMFTILEEYFMYRGLLGLRIKYGRRRRRRRRR (C-terminal nona-arginine (R9)) [72(S8)-R^9] |  |  |  |  | 43% | 80% | 93% | 92% | 100% | 100% |
| EMFTILEEYFMYRGLLGLRIKYGRRRRRRRRRR (C-terminal nona-arginine (R9)) [71(S7)-R^9] |  |  |  |  | 21% | 29% | 38% | 56% | 82% | 91% |
| EMFTILEEYFMYRGLLGLRIKYRRRRRRRRR (C-terminal nona-arginine (R9)) [73(S9)-R^9] |  |  |  |  | 3% | 76% | 85% | 84% | 100% | 100% |
| EMFTILEEYFMYRGLLGLRIRRRRRRRRR (C-terminal nona-arginine (R9)) [75(S11)-R^9] |  |  |  |  | 31% | 84% | 93% | 92% | 97% | 98% |
| EMFTILEEYFMYRGLLGLRRRRRRRRR (C-terminal nona-arginine (R9)) [77(S13)-R^9] |  |  |  |  | 18% | 77% | 81% | 84% | 89% | 93% |
| EMFTILEEYFMYRGLLGLRRRRRRRRRR (C-terminal nona-arginine (R9)) [76(S12)-R^9] |  |  |  |  | 44% | 67% | 84% | 82% | 84% | 87% |
| EMFTILEEYFMYRGLLRRRRRRRRR (C-terminal nona-arginine (R9)) [79(S14)-R^9] |  |  |  |  | 0% | 77% | 86% | 85% | 93% | 97% |
| EMFTILEEYFMYRGLRRRRRRRRR (C-terminal nona-arginine (R9)) [80(S15)-R^9] |  |  |  |  | 57% | 68% | 81% | 78% | 87% | 91% |
| FTILEEYFMYRGLLGLRIRRRRRRRRR (C-terminal nona-arginine (R9)) [103(S19)-R^9] |  |  |  |  |  | 87% | 93% | 93% | 99% |  |
| ILEEYFMYRGLLGLRIRRRRRRRRR (C-terminal nona-arginine (R9)) [105(S21)-R^9] |  |  |  |  |  | 52% | 62% | 62% | 91% |  |
| LEEYFMYGLLGLRIRRRRRRRRR (C-terminal nona-arginine (R9)) [106(S22)-R^9] |  |  |  |  |  | 53% | 70% | 70% | 92% |  |
| MFTILEEYFMYRGLLGLRIRRRRRRRRR (C-terminal nona-arginine (R9)) [102(S18)-R^9] |  |  |  |  |  | 48% | 72% | 72% | 91% |  |
| TILEEYFMYRGLLGLRIRRRRRRRRR (C-terminal nona-arginine (R9)) [104(S20)-R^9] |  |  |  |  |  | 60% | 74% | 74% | 93% |  |
